This data set is described as follows: Water solubility of labeling precursor. Conditions: aqueous 0.1% acetic acid. Type of data set: physicochemical. The source says:
The radiochemical strategy shown on FIG. 3 uses the mild, water soluble oxidant, N-chlorosuccinimide, to achieve iodination on the hydroxyphenyl group of 4. […] Even though much greater radiochemical yield was possible by increasing the ratio of 4 to Na^125I, the highest possible specific activity of the radiolabeled intermediate 5 and higher conjugation yields was facilitated by avoiding saturation of available reduced thiols. The intermediate 5 was easily purified from free iodide and oxidant using reverse-phase solid-phase extraction cartridges. Acid deprotection yielded the triacid 6, with completeness of reaction monitored by reverse-phase radio-HPLC (FIG. 3). This 4-hydroxy-3-iodophenyl derivative of DOTA, 6, was designated [^125I] HIP-DOTA. After exhaustive removal of acid by repeated evaporation of toluene, the thiol-containing antibody could be introduced for thiol-maleimide coupling. Remaining free thiols in the radioimmunoconjugate were capped with iodoacetic acid to avoid dimerization or formation of adducts with thiol containing plasma or endogenous proteins. All radioimmunoconjugates were analyzed for purity by size-exclusion HPLC and compared to the profile of unlabeled antibodies, such as trastuzumab.

Consider `CC(C)(C)OC(=O)CN1CCN(CC(=O)NCCN(CC(=O)NCC(=O)NCCN2C(=O)C=CC2=O)C(=O)Cc2ccc(O)cc2)CCN(CC(=O)OC(C)(C)C)CCN(CC(=O)OC(C)(C)C)CC1` [compound 4, tri-tert-butyl 2,2′,2″-(10-(14-(2,5-dioxo-2,5-dihydro-1H-pyrrol-1-yl)-6-(2-(4-hydroxyphenyl)acetyl)-2,8,11-trioxo-3,6,9,12-tetraazatetradecyl)-1,4,7,10-tetraazacyclododecane-1,4,7-triyl)triacetate], for which the Water solubility result was “sufficiently water soluble”.

Values taken from patent US9486546B2, “Methods and compositions for radiohalogen protein labeling” (Genentech, Inc., priority 2012, dated 2016).
